Laboratory results published in patent publication US7910723B2, “IG20 splice variants therapeutics for cancer” (The Board of Trustees of the University of Illinois, priority 2006, dated 2011).

Key:
HeLa cells = assay: Spontaneous apoptosis of HeLa cells (Hoechst nuclear condensation, TMRM mitochondrial depolarization); type: cell-based; details: 72 hours post-transduction
Procedure: FIG. 1 illustrates effect of down-modulation of IG20-SVs in HeLa cells. (A) Summary of results showing percentage of cells with increased nuclear condensation as measured by Hoechst staining from three independent experiments. The P value was <0.005 for all test groups. Hoechst Staining-72 hours post-transduction was performed and HeLa cells were collected and stained with 1 μg/mL of Hoechst and subjected to FACS analysis. Percentages of highly positive cells (apoptotic cells) are indicated on the histograms. (B) Summary of results showing percentage of cells with increased mitochondrial depolarization from three independent experiments. The P value was <0.005 for all test groups. The data were collected from only GFP positive cells. […] Loss of staining as a marker of mitochondrial depolarization was detected by FACS.
Spontaneous cell death was determined by nuclear condensation (Hoechst 33342) and loss of mitochondrial membrane potential (TMRM staining) (FIG. 1A-B). […] Whether the underlying cause of increased spontaneous apoptosis was similar to that noted after induction of apoptosis by the extrinsic (caspase-8 activation) or the intrinsic (caspase-9 activation) pathway was analyzed by determining the percentage of cells that harbored active caspases 8 and 9 using flow cytometry.
Hoechst Staining. […] Cells with condensed chromatin were analyzed using a BD-LSR (Becton Dickinson, N.J.). […]

DR4 = assay: Association of endogenous MADD with DR4 in HeLa cells (immunoprecipitation); type: cell-based; details: LY 10 μM 1 h
Procedure: (A) Phosphorylation status of MADD could influence its binding to DR4. HEK293 cells were transfected with wtMADD or MADD mutants. 36 h after transfection, the cells were harvested for immunoprecipitation using an anti-DR4 antibody followed by immunoblotting using an anti-YFP antibody to detect exogenous MADD. The membrane was reprobed with an anti-DR4 antibody to show the protein loading. (B) PI3K can influence the association of exogenous MADD with DR4. HEK293 cells were transfected with wtMADD. Twenty four hours after transfection, the cells were serum starved for 20 h. Further, they were treated with LY (10 μM) for 1 h, IGF-1 (150 ng/ml) for 20 minutes. Immunoprecipitation using an anti-DR4 antibody was followed by immunoblotting using anti-YFP or anti-DR4 antibody. (C) Akt can influence exogenous MADD association with DR4. HEK293 cells were co-transfected with wtMADD along with DN-Akt or the empty vector pcDNA3.1 (pcDNA). Thirty six hours after transfection, the cells were harvested for immunoprecipitation using anti-DR4 antibody followed by immunoblotting with an anti-YFP or an anti-DR4 antibody. (D) PI3K can influence the association of endogenous MADD with DR4. HeLa cells were serum starved for 20 h, then treated with LY (10 μM) for 1 h, IGF-1 (150 ng/ml) for 20 minutes. […]
Immunoprecipitation. […] Immunoblots were prepared and analysed as described above.

Compound: 13L-shRNA: shRNA targeting exon 13L (IG20, MADD), 5′ CGGCGAATCTATGACAATC-3′ (SEQ ID NO: 4)
- Spontaneous apoptosis (nuclear condensation, mitochondrial depolarization) (HeLa cells): consistently higher in 13L-treated, relative to Mid-treated, cells

Compound: O=c1cc(N2CCOCC2)oc2c(-c3ccccc3)cccc12 [LY]
- Interaction between endogenous MADD and DR4 (DR4): reduced
